In ChEMBL document CHEMBL3112408, “1,2,3-triazole-, arylamino- and thio-substituted 1,4-naphthoquinones: potent antitumor activity, electrochemical aspects, and bioisosteric replacement of C-ring-modified lapachones” (Bioorg Med Chem, 2014):

Test system: PC-3
Assay: Cytotoxicity against human PC3 cells assessed as cell viability after 72 hrs by MTT assay
Type: functional, cell-based
Conditions: PC-3, 72 h

| SMILES | IC50 [µM] |
| --- | --- |
| CC1(C)CC(n2cc(C3CCCCC3)nn2)C2=C(O1)C(=O)c1ccccc1C2=O (configuration not stated) | 11.2 |
| CCCCCc1cn(C2CC(C)(C)OC3=C2C(=O)c2ccccc2C3=O)nn1 (configuration not stated) | 3.66 |
| CCC(C)(O)c1cn(C2CC(C)(C)OC3=C2C(=O)c2ccccc2C3=O)nn1 (configuration not stated) | 3.07 |

Test system: SF-295
Assay: Cytotoxicity against human SF295 cells assessed as cell viability after 72 hrs by MTT assay
Type: functional, cell-based
Conditions: SF-295, 72 h

| SMILES | IC50 [µM] |
| --- | --- |
| CC1(C)CC(n2cc(C3CCCCC3)nn2)C2=C(O1)C(=O)c1ccccc1C2=O (configuration not stated) | 11.3 |
| CCCCCc1cn(C2CC(C)(C)OC3=C2C(=O)c2ccccc2C3=O)nn1 (configuration not stated) | 2.77 |
| CCC(C)(O)c1cn(C2CC(C)(C)OC3=C2C(=O)c2ccccc2C3=O)nn1 (configuration not stated) | 4.22 |

Test system: OVCAR-8
Assay: Cytotoxicity against human OVCAR8 cells assessed as cell viability after 72 hrs by MTT assay
Type: functional, cell-based
Conditions: OVCAR-8, 72 h

| SMILES | IC50 [µM] |
| --- | --- |
| CC1(C)CC(n2cc(C3CCCCC3)nn2)C2=C(O1)C(=O)c1ccccc1C2=O (configuration not stated) | 15.1 |
| CCCCCc1cn(C2CC(C)(C)OC3=C2C(=O)c2ccccc2C3=O)nn1 (configuration not stated) | 6.67 |
| CCC(C)(O)c1cn(C2CC(C)(C)OC3=C2C(=O)c2ccccc2C3=O)nn1 (configuration not stated) | 4.77 |

Test system: MCF7
Assay: Cytotoxicity against human MCF7 cells assessed as cell viability after 72 hrs by MTT assay
Type: functional, cell-based
Conditions: MCF7, 72 h

| SMILES | IC50 [µM] |
| --- | --- |
| CC1(C)CC(n2cc(C3CCCCC3)nn2)C2=C(O1)C(=O)c1ccccc1C2=O (configuration not stated) | > 12 |
| CCCCCc1cn(C2CC(C)(C)OC3=C2C(=O)c2ccccc2C3=O)nn1 (configuration not stated) | 3.16 |
| CCC(C)(O)c1cn(C2CC(C)(C)OC3=C2C(=O)c2ccccc2C3=O)nn1 (configuration not stated) | 3.12 |

Test system: DU-145
Assay: Cytotoxicity against human DU145 cells assessed as cell viability after 72 hrs by MTT assay
Type: functional, cell-based
Conditions: DU-145, 72 h

| SMILES | IC50 [µM] |
| --- | --- |
| CC1(C)CC(n2cc(C3CCCCC3)nn2)C2=C(O1)C(=O)c1ccccc1C2=O (configuration not stated) | 11.7 |
| CCCCCc1cn(C2CC(C)(C)OC3=C2C(=O)c2ccccc2C3=O)nn1 (configuration not stated) | 2.48 |
| CCC(C)(O)c1cn(C2CC(C)(C)OC3=C2C(=O)c2ccccc2C3=O)nn1 (configuration not stated) | 3.36 |

Test system: MDA-MB-435
Assay: Cytotoxicity against human MDA-MB-435 cells assessed as cell viability after 72 hrs by MTT assay
Type: functional, cell-based
Conditions: MDA-MB-435, 72 h

| SMILES | IC50 [µM] |
| --- | --- |
| CC1(C)CC(n2cc(C3CCCCC3)nn2)C2=C(O1)C(=O)c1ccccc1C2=O (configuration not stated) | 10.7 |
| CCCCCc1cn(C2CC(C)(C)OC3=C2C(=O)c2ccccc2C3=O)nn1 (configuration not stated) | 2.77 |
| CCC(C)(O)c1cn(C2CC(C)(C)OC3=C2C(=O)c2ccccc2C3=O)nn1 (configuration not stated) | 2.1 |

Test system: MX1
Assay: Cytotoxicity against human MX1 cells assessed as cell viability after 72 hrs by MTT assay
Type: functional, cell-based
Conditions: MX1, 72 h

| SMILES | IC50 [µM] |
| --- | --- |
| CC1(C)CC(n2cc(C3CCCCC3)nn2)C2=C(O1)C(=O)c1ccccc1C2=O (configuration not stated) | > 12 |
| CCCCCc1cn(C2CC(C)(C)OC3=C2C(=O)c2ccccc2C3=O)nn1 (configuration not stated) | 2.4 |
| CCC(C)(O)c1cn(C2CC(C)(C)OC3=C2C(=O)c2ccccc2C3=O)nn1 (configuration not stated) | 3.41 |

Test system: not listed separately
Assay: Cytotoxicity against human HCT8 cells assessed as cell viability after 72 hrs by MTT assay
Type: functional, cell-based
Conditions: HCT-8, 72 h

| SMILES | IC50 [µM] |
| --- | --- |
| CC1(C)CC(n2cc(C3CCCCC3)nn2)C2=C(O1)C(=O)c1ccccc1C2=O (configuration not stated) | 12.3 |
| CCCCCc1cn(C2CC(C)(C)OC3=C2C(=O)c2ccccc2C3=O)nn1 (configuration not stated) | 4.45 |
| CCC(C)(O)c1cn(C2CC(C)(C)OC3=C2C(=O)c2ccccc2C3=O)nn1 (configuration not stated) | 2.73 |

Test system: HL-60
Assay: Cytotoxicity against human HL60 cells assessed as cell viability after 72 hrs by MTT assay
Type: functional, cell-based
Conditions: HL-60, 72 h

| SMILES | IC50 [µM] |
| --- | --- |
| CC1(C)CC(n2cc(C3CCCCC3)nn2)C2=C(O1)C(=O)c1ccccc1C2=O (configuration not stated) | 10.4 |
| CCCCCc1cn(C2CC(C)(C)OC3=C2C(=O)c2ccccc2C3=O)nn1 (configuration not stated) | 1.37 |
| CCC(C)(O)c1cn(C2CC(C)(C)OC3=C2C(=O)c2ccccc2C3=O)nn1 (configuration not stated) | 2.12 |

Test system: V79
Assay: Cytotoxicity against chinese hamster V79 cells assessed as cell viability after 72 hrs by MTT assay
Type: cell-based
Conditions: Cricetulus griseus, V79, 72 h

| SMILES | IC50 [µM] |
| --- | --- |
| CC1(C)CC(n2cc(C3CCCCC3)nn2)C2=C(O1)C(=O)c1ccccc1C2=O (configuration not stated) | 12 |
| CCCCCc1cn(C2CC(C)(C)OC3=C2C(=O)c2ccccc2C3=O)nn1 (configuration not stated) | 5.59 |
| CCC(C)(O)c1cn(C2CC(C)(C)OC3=C2C(=O)c2ccccc2C3=O)nn1 (configuration not stated) | 4.06 |

Test system: not listed separately
Assay: Cytotoxicity against human Hs578T cells assessed as cell viability after 72 hrs by MTT assay
Type: functional, cell-based
Conditions: Hs-578T

| SMILES | IC50 [µM] |
| --- | --- |
| CC1(C)CC(n2cc(C3CCCCC3)nn2)C2=C(O1)C(=O)c1ccccc1C2=O (configuration not stated) | 10.9 |
| CCCCCc1cn(C2CC(C)(C)OC3=C2C(=O)c2ccccc2C3=O)nn1 (configuration not stated) | 3.08 |
| CCC(C)(O)c1cn(C2CC(C)(C)OC3=C2C(=O)c2ccccc2C3=O)nn1 (configuration not stated) | 3.04 |

Test system: L929
Assay: Cytotoxicity against mouse L929 cells assessed as cell viability after 72 hrs by MTT assay
Type: ADME, cell-based
Conditions: L929, 72 h

| SMILES | IC50 [µM] |
| --- | --- |
| CC1(C)CC(n2cc(C3CCCCC3)nn2)C2=C(O1)C(=O)c1ccccc1C2=O (configuration not stated) | 12.5 |
| CCCCCc1cn(C2CC(C)(C)OC3=C2C(=O)c2ccccc2C3=O)nn1 (configuration not stated) | 4.98 |
| CCC(C)(O)c1cn(C2CC(C)(C)OC3=C2C(=O)c2ccccc2C3=O)nn1 (configuration not stated) | 3.85 |

Test system: PBMC
Assay: Cytotoxicity against human PBMC assessed as cell viability after 72 hrs by MTT assay
Type: cell-based
Conditions: not given

| SMILES | IC50 [µM] |
| --- | --- |
| CC1(C)CC(n2cc(C3CCCCC3)nn2)C2=C(O1)C(=O)c1ccccc1C2=O (configuration not stated) | > 12 |
| CCCCCc1cn(C2CC(C)(C)OC3=C2C(=O)c2ccccc2C3=O)nn1 (configuration not stated) | 7.77 |
| CCC(C)(O)c1cn(C2CC(C)(C)OC3=C2C(=O)c2ccccc2C3=O)nn1 (configuration not stated) | 4.77 |

Test system: HCT-116
Assay: Cytotoxicity against human HCT116 cells assessed as cell viability after 72 hrs by MTT assay
Type: functional, cell-based
Conditions: HCT-116, 72 h

| SMILES | IC50 [µM] |
| --- | --- |
| CC1(C)CC(n2cc(C3CCCCC3)nn2)C2=C(O1)C(=O)c1ccccc1C2=O (configuration not stated) | 10.5 |
| CCCCCc1cn(C2CC(C)(C)OC3=C2C(=O)c2ccccc2C3=O)nn1 (configuration not stated) | 4.93 |
| CCC(C)(O)c1cn(C2CC(C)(C)OC3=C2C(=O)c2ccccc2C3=O)nn1 (configuration not stated) | 3.2 |
